{"source": "patent US6469028B1", "about": "“Synthesis and use of retinoid compounds having negative hormone and/or anatgonist activities” (Allergan, Inc., priority 1995, dated 2002)", "key": {"guinea pigs": {"test_system": "guinea pigs", "experiment": "Example 5: premature epiphyseal plate closure (bone toxicity)", "assay_type": "in vivo", "conditions": "AGN 191183 0.06 mg/ml + AGN 193109 0.34 mg/ml (5-fold molar excess), osmotic pump, 14 days", "experimental": "The osmotic pumps are designed by the manufacturer to deliver ˜5 μl of solution per hour continuously for 14 days.\nThe animals were euthanized by carbon dioxide asphyxiation 14 days after implantation. The left tibia was removed and placed in 10% buffered formalin. The tibias were decalcified by exposure to a formic acid/formalin solution for 3-4 days, and paraffin sections were prepared. Sections were stained with hematoxylin and eosin by standard methods. The proximal tibial epiphyseal plate was examined and scored as closed or not closed. Epiphyseal plate closure is defined for this purpose as any interruption of the continuity of the epiphyseal growth plate cartilage, i.e., replacement by bone and/or fibroblastic tissue."}, "[1]": {"experiment": "Example 3: recovery from preexisting retinoid toxicity (body weight)", "assay_type": "in vivo, mice", "experimental": "Groups of these same mice (n=5) were then treated topically either with vehicle or AGN 193109 in vehicle (4 ml/kg) daily for 3 consecutive days beginning on day 3. Mice were weighed on days 1-5 and on day 8. Body weights are expressed as the mean±SD. Means were compared statistically using an unpaired, two-tailed t-test. Differences were considered significant at P<0.05."}, "[2]": {"experiment": "Example 4: retinoid-induced hypertriglyceridemia (serum triglycerides)", "assay_type": "in vivo, rats", "experimental": "Male Fischer rats (6-7 weeks old, n=5) were treated by intragastric intubation with corn oil (vehicle), AGN 191659, AGN 193109 or a combination of AGN 191659 and AGN 193109. AGN 191659 and AGN 193109 were given as fine suspensions in corn oil.\nSerum was separated from blood by low speed centrifugation. Total serum triglycerides (triglycerides plus glycerol) were measured with a standard spectrophotometric endpoint assay available commercially as a kit and adapted to a 96-well plate format. Serum triglyceride levels are expressed as the mean±SD. Means were compared statistically by one-way analysis of variance followed by Dunnett's test if significant differences were found. Differences were considered significant at P<0.05."}, "RARβ [3]": {"biological_target": "T1, RARβ (Homo sapiens, UniProt P10826)", "T1 sequence (P10826 1-448 isoform P10826-2)": "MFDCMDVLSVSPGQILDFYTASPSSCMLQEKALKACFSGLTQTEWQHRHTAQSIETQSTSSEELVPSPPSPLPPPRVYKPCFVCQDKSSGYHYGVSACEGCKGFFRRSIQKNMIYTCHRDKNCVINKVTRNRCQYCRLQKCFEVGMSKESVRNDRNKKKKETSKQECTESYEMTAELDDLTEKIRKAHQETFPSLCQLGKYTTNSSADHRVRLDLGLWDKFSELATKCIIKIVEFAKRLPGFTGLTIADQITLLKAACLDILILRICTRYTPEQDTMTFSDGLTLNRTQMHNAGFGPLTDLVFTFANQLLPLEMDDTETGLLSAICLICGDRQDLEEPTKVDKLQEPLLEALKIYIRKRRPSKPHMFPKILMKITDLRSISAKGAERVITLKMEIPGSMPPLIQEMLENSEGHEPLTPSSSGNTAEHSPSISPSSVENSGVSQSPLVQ", "experiment": "Transactivation in CV-1 cells, ΔMTV-TREp-Luc reporter", "assay_type": "cell-based", "design": "expressed in transfected cells; host or cells: green monkey CV-1 cells", "conditions": "10^−9 to 10^−6 M, 18 hours", "experimental": "AGN 193109 was also tested for its ability to transactivate RARs in CV-1 cells transiently cotransfected with RAR expression vectors and a retinoid responsive reporter gene construct. Receptor expression vectors pRShRAR-α (Giguere et al. Nature 330:624 (1987)), pRShRAR-β (Benbrook et al. Nature 333:669 (1988)) and pRShRAR-γ (Ishikawa et al. Mol. Endocrinol. 4:837 (1990)) were separately cotransfected with the ΔMTV-TREp-Luc reporter plasmid. Use of this luciferase reporter plasmid has been disclosed by Heyman et al. in Cell 68:397 (1992). The ΔMTV-TREp-Luc plasmid is essentially identical to the ΔMTV-TREp-CAT reporter construct described by Umesono et al. in Nature 336:262 (1988), except that the chloramphenicol acetyltransferase (CAT) reporter gene was substituted by a polynucleotide sequence encoding firefly luciferase. Transfection of green monkey CV-1 cells was carried out using the calcium phosphate coprecipitation method described in Molecular Cloning: A Laboratory Manual (Sambrook et al. eds. Cold Spring Harbor Lab Publ. 1989). CV-1 cells were plated at a density of 4×10^4/well in 12 well multiwell plates and transiently transfected with a calcium phosphate precipitate containing 0.7 μg of reporter plasmid and 0.1 μg of receptor plasmid according to standard laboratory procedures. […]"}, "ER-RXR-α": {"test_system": "ER-RXR-α", "experiment": "Example 11: ER-RXR-α alone, ERE-tk-Luc, CV-1 cells"}, "RARβ [4]": {"biological_target": "T1, RARβ", "experiment": "Example 7: inhibition of RAR transactivation by ATRA, CV-1 cells", "assay_type": "cell-based", "design": "expressed in transfected cells; host or cells: green monkey CV-1 cells", "conditions": "equal doses of AGN 193109 and ATRA (10 nM ATRA)", "experimental": "Eukaryotic expression vectors pRShRAR-α (Giguere et al. Nature 330:624 (1987)), pRShRAR-β (Benbrook et al. Nature 333:669 (1988)) and pRShRAR-γ (Ishikawa et al. Mol. Endocrinol. 4:837 (1990)) were cotransfected with the Δ-MTV-Luc reporter plasmid described by Hollenberg et al. (Cell 55:899.(1988)). […] Calcium phosphate transfections were carried out exactly as described in Example 6. […] Cell lysates and luciferase activity measurements were also performed as in Example 6."}, "[5]": {"conditions": "topical AGN 191183 0.13 mg/kg/d days 1-2, then topical AGN 193109 days 3-5, mean±SD"}}}
{"smiles": "Cc1ccc(C2=CCC(C)(C)c3ccc(C#Cc4ccc(C(=O)O)cc4)cc32)cc1", "note": "[Compound 60, 4-[(5,6-dihydro-5,5-dimethyl-8-(4-methylphenyl)-2-naphthalenyl)ethynyl]benzoic acid]", "values": [{"measurement": "epiphyseal plate closure", "setting": "guinea pigs", "value": "completely blocked AGN 191183-induced bone toxicity"}, {"measurement": "body weight relative to vehicle treatment", "setting": "[1]; after AGN 191183-induced weight loss, t-test, P<0.05", "value": "significantly increased body weight relative to vehicle treatment on days 4 and 5"}, {"measurement": "Body Weight (g) DAY 1", "setting": "[1]; [5]", "value": "23.9 ± 1.0", "unit": "g"}, {"measurement": "Body Weight (g) DAY 2", "setting": "[1]; [5]", "value": "23.5 ± 1.2", "unit": "g"}, {"measurement": "Body Weight (g) DAY 3", "setting": "[1]; [5]", "value": "21.4 ± 0.6", "unit": "g"}, {"measurement": "Body Weight (g) DAY 4", "setting": "[1]; [5]", "value": "22.2 ± 0.7", "unit": "g"}, {"measurement": "Body Weight (g) DAY 5", "setting": "[1]; [5]", "value": "22.8 ± 0.8", "unit": "g"}, {"measurement": "Body Weight (g) DAY 8", "setting": "[1]; [5]", "value": "25.0 ± 1.1", "unit": "g"}, {"measurement": "serum triglycerides versus control", "setting": "[2]; AGN 193109 with AGN 191659 at molar ratios of 1:1 and 5:1", "value": "reduced serum triglycerides to levels that were not significantly different from control"}, {"measurement": "Serum Triglycerides", "setting": "[2]; group B: AGN 193109 19.6 mg/kg oral alone, male Fischer rats", "value": "52.4 ± 6.3", "unit": "mg/dL"}, {"measurement": "Serum Triglycerides", "setting": "[2]; group D: AGN 193109 3.9 mg/kg + AGN 191659 3.7 mg/kg oral", "value": "55.7 ± 14.7", "unit": "mg/dL"}, {"measurement": "Serum Triglycerides", "setting": "[2]; group E: AGN 193109 19.6 mg/kg + AGN 191659 3.7 mg/kg oral", "value": "72.7 ± 8.9", "unit": "mg/dL"}, {"measurement": "EC50 (nM) RAR-β", "setting": "RARβ [3]", "value": "No Activity"}, {"measurement": "luciferase expression levels", "setting": "ER-RXR-α; cells transfected only with ER-RXR-α, AGN 193109 as high as 10^−6 M", "value": "approximately 8,000 rlu"}, {"measurement": "luciferase activity", "setting": "ER-RXR-α; reporter and chimeric receptor without RAR-γ-VP-16", "value": "did not exhibit any effect on luciferase activity"}, {"measurement": "inhibition of luciferase activity relative to ATRA alone", "setting": "RARβ [4]", "value": "greater than 50%"}]}
